Results as given in ChEMBL document CHEMBL1201862, “PubChem BioAssay data set” (2004).
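Method: 48-hour compound exposure of cells in 96-well plates, five concentrations, linear interpolation of endpoints. At the GI50, growth is halved.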 Activity calls are given as the source filed them. No stated cut-off is given here; in the data, active = GI50 up to about 1.1 µM and inactive = higher.

Assays:
Test in all cases: NCI tumour cell line growth inhibition, 48 h
U-251 = tested on: U-251
SNB-19 = tested on: SNB-19
TK-10 = tested on: TK-10
SK-MEL-28 = tested on: SK-MEL-28
HCT-15 = tested on: HCT-15
SK-OV-3 = tested on: SK-OV-3
OVCAR-8 = tested on: OVCAR-8
RXF 393 = tested on: RXF 393
SK-MEL-5 = tested on: SK-MEL-5
CCRF-CEM = tested on: CCRF-CEM
OVCAR-5 = tested on: OVCAR-5
RPMI-8226 = tested on: RPMI-8226
HCT-116 = tested on: HCT-116
UACC-257 = tested on: UACC-257
OVCAR-4 = tested on: OVCAR-4
SK-MEL-2 = tested on: SK-MEL-2
CAKI-1 = tested on: CAKI-1

SMILES | GI50 (U-251) | GI50 (SNB-19) | GI50 (TK-10) | GI50 (SK-MEL-28) | GI50 (HCT-15) [µM] | GI50 (SK-OV-3) | GI50 (OVCAR-8) | GI50 (RXF 393) | GI50 (SK-MEL-5) | GI50 (CCRF-CEM) | GI50 (OVCAR-5) | GI50 (RPMI-8226) | GI50 (HCT-116) | GI50 (UACC-257) | GI50 (OVCAR-4) | GI50 (SK-MEL-2) | GI50 (CAKI-1)
Cc1ccc(-c2cc(-c3ccco3)c(C#N)c(O)n2)cc1 | 82.8 µM (inactive) | > 100 µM (inactive) | > 100 µM (inactive) | > 100 µM (inactive) | > 100 | 29.4 µM (inactive) | > 100 µM (inactive) | 95.1 µM (inactive) | > 100 µM (inactive) | > 100 µM (inactive) | > 100 µM (inactive) | > 100 µM (inactive) | > 100 µM (inactive) | > 100 µM (inactive) | 45.1 µM (inactive) | – | –
O=C(O)[C@@H](NS(=O)(=O)c1ccc2ccccc2c1)c1ccccc1 | > 100 µM (inactive) | > 100 µM (inactive) | – | > 100 µM (inactive) | > 100 | > 100 µM (inactive) | – | > 100 µM (inactive) | – | > 100 µM (inactive) | > 100 µM (inactive) | > 100 µM (inactive) | – | > 100 µM (inactive) | > 100 µM (inactive) | > 100 µM (inactive) | > 100 µM (inactive)
CC(C)c1cccc(C(C)C)c1/N=C(/N)C#N | 34 µM (inactive) | > 100 µM (inactive) | > 100 µM (inactive) | > 100 µM (inactive) | 37.2 | > 100 µM (inactive) | > 100 µM (inactive) | 53.8 µM (inactive) | > 93.5 µM (inactive) | 30.5 µM (inactive) | > 100 µM (inactive) | 34.4 µM (inactive) | > 44.6 µM (inactive) | > 46.6 µM (inactive) | > 100 µM (inactive) | > 90.6 µM (inactive) | > 100 µM (inactive)
NCCCOCC(=O)O | > 100 µM (inactive) | > 100 µM (inactive) | > 100 µM (inactive) | > 100 µM (inactive) | > 100 | > 100 µM (inactive) | > 100 µM (inactive) | > 100 µM (inactive) | > 100 µM (inactive) | – | > 100 µM (inactive) | > 100 µM (inactive) | > 100 µM (inactive) | > 100 µM (inactive) | > 100 µM (inactive) | > 100 µM (inactive) | –
Nc1c(-c2ccc(Cl)cc2Cl)[n+]([O-])c2ccccc2[n+]1[O-] | > 100 µM (inactive) | > 100 µM (inactive) | > 100 µM (inactive) | > 100 µM (inactive) | > 100 | > 100 µM (inactive) | > 100 µM (inactive) | – | > 100 µM (inactive) | > 100 µM (inactive) | > 100 µM (inactive) | > 100 µM (inactive) | – | > 100 µM (inactive) | > 100 µM (inactive) | > 100 µM (inactive) | > 100 µM (inactive)
O=c1oc(=O)c2oc3ccccc3oc1=2 | > 100 µM (inactive) | > 100 µM (inactive) | > 100 µM (inactive) | > 100 µM (inactive) | > 100 | > 100 µM (inactive) | > 100 µM (inactive) | > 100 µM (inactive) | – | > 100 µM (inactive) | > 100 µM (inactive) | – | > 100 µM (inactive) | > 100 µM (inactive) | > 100 µM (inactive) | > 100 µM (inactive) | > 100 µM (inactive)
O=C1/C(=C/c2ccc3c(c2)OCO3)SC2C=Nc3ccccc3N12 (stereo not given) | > 100 µM (inactive) | > 100 µM (inactive) | > 100 µM (inactive) | > 100 µM (inactive) | > 100 | – | > 100 µM (inactive) | > 100 µM (inactive) | > 100 µM (inactive) | – | > 100 µM (inactive) | – | > 100 µM (inactive) | > 100 µM (inactive) | 63.4 µM (inactive) | > 100 µM (inactive) | > 100 µM (inactive)
C=CCNC(=O)NCCCC(NC(C)=O)C(=O)NCc1ccccc1 (stereo not given) | > 100 µM (inactive) | > 100 µM (inactive) | > 100 µM (inactive) | > 100 µM (inactive) | > 100 | > 100 µM (inactive) | > 100 µM (inactive) | > 100 µM (inactive) | > 100 µM (inactive) | > 100 µM (inactive) | > 100 µM (inactive) | > 100 µM (inactive) | – | > 100 µM (inactive) | > 100 µM (inactive) | > 100 µM (inactive) | > 100 µM (inactive)
OCC(O)COc1c(Cl)ccc(Cl)c1Cl (stereo not given) | > 100 µM (inactive) | > 100 µM (inactive) | > 100 µM (inactive) | > 100 µM (inactive) | > 100 | > 100 µM (inactive) | > 100 µM (inactive) | > 100 µM (inactive) | > 100 µM (inactive) | > 100 µM (inactive) | > 100 µM (inactive) | – | > 100 µM (inactive) | > 100 µM (inactive) | > 100 µM (inactive) | > 100 µM (inactive) | > 100 µM (inactive)
Cc1ccc(S(=O)(=O)c2c(N)n(CCN(C)C)c3nc4ccccc4nc23)cc1 | > 100 µM (inactive) | > 100 µM (inactive) | 99.8 µM (inactive) | > 100 µM (inactive) | > 100 | > 100 µM (inactive) | > 100 µM (inactive) | – | > 100 µM (inactive) | 96.6 µM (inactive) | > 100 µM (inactive) | > 100 µM (inactive) | > 100 µM (inactive) | 71.9 µM (inactive) | > 100 µM (inactive) | > 100 µM (inactive) | –
CC(=O)OC1(C(C)=O)CC2(c3ccccc3)OC1(c1ccccc1)c1ccccc12 (stereo not given) | 18.2 µM (inactive) | 7.73 µM (inactive) | 17.6 µM (inactive) | 31.6 µM (inactive) | 6.38 | 46.9 µM (inactive) | 34.6 µM (inactive) | 13 µM (inactive) | 3.37 µM (inactive) | – | > 100 µM (inactive) | 3.18 µM (inactive) | 7.78 µM (inactive) | 4.1 µM (inactive) | – | 12.6 µM (inactive) | –
CC(=O)Nc1ccc(/C=C/C(=O)c2sc(C(N)=S)nc2C)cc1 | > 100 µM (inactive) | – | > 100 µM (inactive) | > 100 µM (inactive) | > 100 | > 100 µM (inactive) | > 100 µM (inactive) | > 100 µM (inactive) | > 100 µM (inactive) | 81.1 µM (inactive) | > 100 µM (inactive) | > 100 µM (inactive) | – | > 100 µM (inactive) | – | > 100 µM (inactive) | > 100 µM (inactive)
CN1CCC23c4c5ccc(O)c4OC2C(=NN=C2CCC4(O)C6Cc7ccc(O)c8c7C4(CCN6C)C2O8)CCC3(O)C1C5 (stereo not given) | > 100 µM (inactive) | > 100 µM (inactive) | > 100 µM (inactive) | > 100 µM (inactive) | > 100 | > 100 µM (inactive) | > 100 µM (inactive) | – | > 100 µM (inactive) | > 100 µM (inactive) | > 100 µM (inactive) | > 100 µM (inactive) | – | > 100 µM (inactive) | > 100 µM (inactive) | > 100 µM (inactive) | > 100 µM (inactive)
CC(C)(CN1CCCCC1)C(=O)CC(SCCS(=O)(=O)O)c1ccc(Br)cc1 (stereo not given) | 1.56 µM (inactive) | 2.34 µM (inactive) | 2.56 µM (inactive) | 3.27 µM (inactive) | 2.82 | 2.93 µM (inactive) | 2.38 µM (inactive) | 1.41 µM (inactive) | 1.8 µM (inactive) | – | 2.8 µM (inactive) | 1.94 µM (inactive) | 1.67 µM (inactive) | 3.17 µM (inactive) | 2.03 µM (inactive) | 2.32 µM (inactive) | 2.4 µM (inactive)
